Among the data in the OligoGym collection are calcium oscillation score values, retold here.

Bases are written 5' to 3'; sugars and linkages follow in the same order, as letters with counts (s phosphorothioate, o phosphodiester; PS: all linkages phosphorothioate). The collection does not say whether C is 5-methylated. l = locked nucleic acid (LNA); d = 2'-deoxy (DNA)

This data set addresses Tau. Put plainly: rat primary cortical neurons, FLIPR, 25 uM ASO.
For the sequence “CTTATTGCTTTCCAATTC (sugars l2 d12 l4, PS)”, the calcium oscillation score was 83.6 % of control.

For the sequence CCCAGCGTGATCTTCC (sugars l3 d10 l3, PS), the calcium oscillation score is 4.6 % of control.

Consider GATGCAGGAGTTGTAA (sugars l3 d10 l3, PS), for which the calcium oscillation score is 0 % of control.

In the case of “AGATATTCATTCCCTCA (sugars l3 d12 l2, PS)”, the calcium oscillation score is 53 % of control.

“TCTTAGAGGACTGCAACGCA (sugars l3 d14 l3, PS)”: the calcium oscillation score is 25.7 % of control.

Take “CCCCTCCATTAAGAACCT (sugars l1 d15 l2, PS)”: the calcium oscillation score was 88.6 % of control.

Turning to “CAGCATTTCCATTTCATC (sugars l2 d13 l3, PS)”, the calcium oscillation score is 52.7 % of control.

Consider “GTCCAGGGACCCAATCTTCG (sugars l3 d14 l3, PS)”, for which the calcium oscillation score was 0 % of control.

For “CTCCTAGAACACAACAC (sugars l3 d10 l4, PS)”, the calcium oscillation score was 50.9 % of control.

Regarding “TCCATTCCCTCCAGAACCAT (sugars l3 d14 l3, PS)”, the calcium oscillation score is 61.9 % of control.

Consider “CTCACCCCAAACAAGAA (sugars l2 d11 l4, PS)”, for which the calcium oscillation score was 45.1 % of control.

Regarding CCCGAGCCAAAGCCGA (sugars l3 d10 l3, PS), the calcium oscillation score is 50.6 % of control.

As for “CTTTATTTCCAAATTCACT (sugars l4 d10 l1 d2 l2, PS)”, the calcium oscillation score is 125 % of control.

Turning to “CCCAGCACACAGGCAGCCAC (sugars l3 d14 l3, PS)”, the calcium oscillation score was 24.2 % of control.

Turning to “AAGCTTCCACATTTTAC (sugars l4 d10 l3, PS)”, the calcium oscillation score was 68.4 % of control.

For the sequence “ATGACATTTTAAACCCC (sugars l3 d11 l3, PS)”, the calcium oscillation score was 54.9 % of control.

For CCGTGGTCTGTCTTGG (sugars l3 d10 l3, PS), the calcium oscillation score is 42.2 % of control.

As for CCTTTGAAAGTCCTTT (sugars l2 d11 l3, PS), the calcium oscillation score is 100 % of control.

As to “TCATAAATGACTATACTTAT (sugars l3 d14 l3, PS)”, the calcium oscillation score is 80.6 % of control.

Take “AAGCCCATTTACAATTC (sugars l4 d10 l3, PS)”: the calcium oscillation score is 81.1 % of control.

Regarding “TATTTCCAAATTCACTTTTA (sugars ldlllddddddddddlldll, PS)”, the calcium oscillation score is 145 % of control.

Turning to TGTAGACTATTTGCAC (sugars l3 d10 l3, PS), the calcium oscillation score is 93.3 % of control.

As for “AATACATCAATAGAAGGCAA (sugars l3 d14 l3, PS)”, the calcium oscillation score is 16.1 % of control.

Consider “TAACCAACTTTCATCTAC (sugars l4 d10 l4, PS)”, for which the calcium oscillation score is 98.4 % of control.

For the sequence “CCTAGAACACAACACAC (sugars l3 d10 l4, PS)”, the calcium oscillation score was 58.6 % of control.

Regarding “GCCTTACTTTCTACTCAA (sugars l2 d13 l3, PS)”, the calcium oscillation score was 53.9 % of control.

With “TTGCTTTTCCCAATTAT (sugars l4 d11 l2, PS)”, the calcium oscillation score is 54.5 % of control.

In the case of “TTCCACTACAAGCTCCAC (sugars l3 d13 l2, PS)”, the calcium oscillation score was 52 % of control.

CGTCAGCTAGCGTGGC (sugars l3 d10 l3, PS): the calcium oscillation score was 117 % of control.

In the case of “TCAGGTCAACTGGTTTGTAG (sugars l3 d14 l3, PS)”, the calcium oscillation score was 0 % of control.

Turning to “CATTATCATCCATTCTG (sugars l3 d10 l4, PS)”, the calcium oscillation score is 47.3 % of control.

Take “CTTTTCCCAATTATTAAC (sugars l4 d10 l4, PS)”: the calcium oscillation score is 60.1 % of control.

With “TTCCCAAATTCCTCATAATC (sugars l3 d15 l2, PS)”, the calcium oscillation score is 69.1 % of control.

With CTTAATTTCACCCTCA (sugars l3 d10 l3, PS), the calcium oscillation score was 40.3 % of control.

With “TCCAAACTTTTACTCTG (sugars l3 d10 l4, PS)”, the calcium oscillation score was 31.2 % of control.

“TTGAAGTCCCGAGCCAAAGC (sugars l3 d14 l3, PS)”: the calcium oscillation score was 0 % of control.

Turning to “CCAGCAGCTTCGTCTTCCAG (sugars l3 d14 l3, PS)”, the calcium oscillation score is 36.1 % of control.

Take “TTACCATCCTATCTTCT (sugars l2 d11 l4, PS)”: the calcium oscillation score is 72.7 % of control.

As for CCTTAATTTCACCCTC (sugars l3 d10 l3, PS), the calcium oscillation score was 132 % of control.

Consider “ATTTTTACCAATTTGCC (sugars l2 d11 l4, PS)”, for which the calcium oscillation score was 57 % of control.

On to “ATCCTGGTGGCGTTGGCCTG (sugars l3 d14 l3, PS)”, for which the calcium oscillation score was 0 % of control.

In the case of “CATTTACCAATTATCTTTAA (sugars l4 d12 l4, PS)”, the calcium oscillation score is 72 % of control.

Consider “TAATTCATAAATGACTATAC (sugars l3 d14 l3, PS)”, for which the calcium oscillation score is 72.5 % of control.

Regarding TAGCAGAGGAACGTGT (sugars l3 d10 l3, PS), the calcium oscillation score was 40.7 % of control.

On to AACATCATGTCACACAC (sugars l4 d9 l4, PS), for which the calcium oscillation score was 39 % of control.

With CACAACCCAAGATTCC (sugars l3 d10 l3, PS), the calcium oscillation score is 58.8 % of control.

For GCCTAATGAGCCACAC (sugars l3 d10 l3, PS), the calcium oscillation score is 70.6 % of control.

Take “ACTTAAAATTTTTCTTATT (sugars l4 d11 l4, PS)”: the calcium oscillation score is 75.1 % of control.

For TTACCCTTAAATATGC (sugars l4 d8 l4, PS), the calcium oscillation score was 73.3 % of control.

In the case of “CCTCCATTAAGAACCTA (sugars l2 d12 l3, PS)”, the calcium oscillation score is 90.1 % of control.

On to “CACCCACTTTCCTAATTCC (sugars l1 d16 l2, PS)”, for which the calcium oscillation score was 60.9 % of control.

For the sequence TTCCCTTAATTTCACC (sugars l3 d10 l3, PS), the calcium oscillation score was 127 % of control.

Take “GTATCCAGCCATATTTCAAC (sugars l3 d14 l3, PS)”: the calcium oscillation score is 36.7 % of control.

As for “CGTCCCAGCGTGATCTTCCA (sugars ldlllddddddddddlldll, PS)”, the calcium oscillation score is 38.3 % of control.

GTCCTAATCCTGTGCT (sugars l3 d10 l3, PS): the calcium oscillation score was 87.8 % of control.

For the sequence “GGTTTGTAGACTATTTGCAC (sugars l3 d14 l3, PS)”, the calcium oscillation score was 0 % of control.

Turning to CCTCCACCCTTACACA (sugars l1 d13 l2, PS), the calcium oscillation score was 58.9 % of control.

On to “CACCCACTTTCCTAATTC (sugars l3 d13 l2, PS)”, for which the calcium oscillation score was 65.6 % of control.

As to TCTGGCATGGGCACG (sugars l3 d9 l3, PS), the calcium oscillation score is 119 % of control.

Turning to AGTCACTCTGGTGA (sugars l3 d8 l3, PS), the calcium oscillation score was 97.1 % of control.

For “TGTCCAAACTTTTACTC (sugars l4 d10 l3, PS)”, the calcium oscillation score was 65.3 % of control.

Consider “TTTTTTATTCATAACTTTTC (sugars l4 d12 l4, PS)”, for which the calcium oscillation score is 63.8 % of control.

For AGCTACTCACAACCCA (sugars l2 d11 l3, PS), the calcium oscillation score was 65.6 % of control.

Regarding “TGCTCAGCTAAGACCCTCAG (sugars l3 d14 l3, PS)”, the calcium oscillation score is 29.4 % of control.

In the case of TCCATTAATTTAGCCA (sugars l4 d10 l2, PS), the calcium oscillation score is 54.1 % of control.

For the sequence “AACCAACTTTCATCTACT (sugars l4 d11 l3, PS)”, the calcium oscillation score is 73.5 % of control.

GTCACCTTGCTCAGGT (sugars l3 d10 l3, PS): the calcium oscillation score is 7.67 % of control.

“CTTGGGTGGAGTACGGACCA (sugars l3 d14 l3, PS)”: the calcium oscillation score is 0 % of control.

As to “GGTTAAGTGATTAACCAATT (sugars l3 d14 l3, PS)”, the calcium oscillation score is 157 % of control.

As to “CTTACTTTCTACTCAATTCC (sugars l2 d16 l2, PS)”, the calcium oscillation score is 60.6 % of control.

With “ACGCACCAGGAACCTTCCAG (sugars l3 d14 l3, PS)”, the calcium oscillation score is 36.7 % of control.

For the sequence AGTCCTAATCCTGTGC (sugars l3 d10 l3, PS), the calcium oscillation score was 25.3 % of control.

As to “CTCCCATCACTAGCACT (sugars l1 d14 l2, PS)”, the calcium oscillation score is 38.3 % of control.

As to CTCTTCAAATCATTCAA (sugars l4 d9 l4, PS), the calcium oscillation score was 68.4 % of control.

Take “CTTTATTTCCAAATTCACTT (sugars l4 d12 l4, PS)”: the calcium oscillation score was 0 % of control.

“GAAGTCCCGAGCCAAAGCCG (sugars l3 d14 l3, PS)”: the calcium oscillation score was 5.18 % of control.

“CCTTTTTCCATCTTACTAAT (sugars l3 d14 l3, PS)”: the calcium oscillation score is 54.7 % of control.

On to GGTGCTCTGGTCAAGG (sugars l3 d10 l3, PS), for which the calcium oscillation score is 14.9 % of control.

Consider “GCAAACCACTCTTATTC (sugars l4 d10 l3, PS)”, for which the calcium oscillation score is 86.8 % of control.

For “GGCGAGTCTACCATGTCGAT (sugars l3 d14 l3, PS)”, the calcium oscillation score is 91.5 % of control.

On to CAAGAGGCACAAGT (sugars l3 d8 l3, PS), for which the calcium oscillation score is 36.2 % of control.

As for “TAATAGATCTTTCCCCT (sugars l2 d12 l3, PS)”, the calcium oscillation score is 103 % of control.

Consider TAATCCTGTGCTTCA (sugars l3 d9 l3, PS), for which the calcium oscillation score was 86.7 % of control.

Take “CACTGGCGACTTGTACACGA (sugars l3 d14 l3, PS)”: the calcium oscillation score was 5.18 % of control.

For the sequence “TCCTAATTCCCAAATTCCT (sugars l2 d15 l2, PS)”, the calcium oscillation score is 57.4 % of control.

Regarding GAGTTTGTGCAAGGTC (sugars l3 d10 l3, PS), the calcium oscillation score is 0 % of control.

Regarding “TAACTCATCAACACCTTTTA (sugars l4 d14 l2, PS)”, the calcium oscillation score was 82.6 % of control.

With CCCTTTCAAACCAGCA (sugars l3 d11 l2, PS), the calcium oscillation score is 91.8 % of control.

In the case of “AGCTTGTGGGTTTCAATCTT (sugars l3 d14 l3, PS)”, the calcium oscillation score is 0 % of control.

As to “ATTATTCTTTTTTTTTCCAC (sugars l3 d14 l3, PS)”, the calcium oscillation score was 15.2 % of control.

Consider CTTGGGTGGAGTACGG (sugars l3 d10 l3, PS), for which the calcium oscillation score was 0 % of control.

Consider AGAGGCACAAGTCCT (sugars l3 d9 l3, PS), for which the calcium oscillation score is 74.3 % of control.

For the sequence ATAGATTTTACTACTC (sugars l4 d8 l4, PS), the calcium oscillation score is 73.3 % of control.

“CTTTATTTCCAAATTCACTT (sugars l2 d16 l2, PS)”: the calcium oscillation score is 195 % of control.

Regarding TCCTGTGCTTCAGG (sugars l3 d8 l3, PS), the calcium oscillation score is 108 % of control.
